Laboratory results reported in patent US20240382596A1, “COMPOSITION OF VANCOMYCIN AQUEOUS SOLUTION” (HAINAN POLY PHARM. CO., LTD., priority 2021, published 2024).

Assays:
[1] = Stability of vancomycin injection, HPLC relevant substances; type: physicochemical; details: injection study, 0 day
Experimental: (§1) The embodiments are intended to facilitate understanding of the invention and should not be deemed as a limitation to the invention. • HPLC analysis conditions of the following embodiments were: • Chromatographic column: Welch Ultimate XB-C18 (250×4.6 mm, 5 μm) • Detection wavelength: 280 nm; • Column temperature: 30° C.; • Flow rate: 2.0 mL/min; • Injection volume: 20 μL; • Mobile phase: • Solution A: 4.0 mL of triethylamine was precisely measured, and water was added to bring the total volume to 2000 mL, and the pH of the solution was further adjusted to 3.20 with phosphoric acid; • Solution B: Acetonitrile-tetrahydrofuran-solution A=55−10−935, the pH was adjusted to 3.20 with phosphoric acid; • Solution C: acetonitrile-tetrahydrofuran-solution A=290−10−700, the pH was adjusted to 3.20 by phosphoric acid; • Elution gradient: […]
After being placed under accelerated conditions of 25° C./60% RH for 30 days, relevant substances were sampled and detected.

[2] = Stability of vancomycin eye drops, HPLC relevant substances; type: physicochemical; details: eye drops study, 0 day
Experimental: as §1
After being placed under accelerated conditions of 25° C./60% RH for 30 days, relevant substances were sampled and detected. The result is shown in Table 7, the percentage of impurities peak area is calculated by peak area normalization method.

[3] = PK test of vancomycin injection; type: in vivo; details: SD rats following a single intrathecal dose; range over G1-G3
Experimental: Nine male SD rats were divided into three groups. […] Plasma samples were collected at 0.083, 0.167, 0.25, 0.5, 1, 2, 4, 6, 8, 12, and 24 h post-dosing in each group. The concentration of vancomycin in plasma samples was detected using an established LC-MS/MS method.

Vancomycin hydrochloride
CDP-1 [1]: 0.32% | RS2 [1]: 0.55% | Vancomycin HCl [1]: 95.19% | CDP-1 [2]: 0.32% | RS2 [2]: 0.53% | Vancomycin HCl [2]: 95.81% | elimination half-life (T½) [3]: 40.7 to 50.5 min
